In brackets after ≈: the same amount, converted by molar mass. Numbered stars: 1 amine (or outer) side, 2 acyl side, 3 side chain; on linkers, the order of the positions; unused ones are H or OH. Square brackets hold non-standard residues; d marks the D form. Peptide text beside a SMILES is read from it. * marks the point of attachment. X1 = CCC(=O)C[C@@H](O)C[C@@H](C)C[C@H](N[*:1])C(=O)[*:2]; Alaψ(CH2NMeCH2CH2OH) = C[C@@H](CN(C)CCO)N*; Decanoyl(2R-Me) = CCCCCCCC[C@@H](C)C(=O)*; Aib = CC(C)(N)C(=O)O
tested on: Mycobacterium tuberculosis; test: Antimycobacterial activity against Mycobacterium tuberculosis H37Ra; assay type: functional; conditions: not given

Structure (SMILES) | MIC [µg/mL]
C=C(C)[C@@H]1CC[C@]2(C(=O)O)CC[C@]3(C)[C@H](CC[C@@H]4[C@@]5(C)CC[C@H](O)C(C)(C)[C@@H]5CC[C@]43C)[C@@H]12 [BETULINIC ACID] | 25 (≈ 54.7 µM)
COC1=CC(=O)c2c(cc(OC)c(C(C)C3=C(O)C(=O)c4cc(O)cc(O)c4C3=O)c2O)C1=O (stereo not drawn) | 6.25 (≈ 13.4 µM)
CC[C@H](C)[C@H]1C(=O)N[C@@H](Cc2ccc(OCC=C(C)C)cc2)C(=O)N(C)[C@@H](C)C(=O)O[C@H](Cc2ccccc2)C(=O)N2CCC[C@H]2C(=O)N[C@@H](CO)C(=O)N1C [PULLULARIN A] | 25 (≈ 32.2 µM)
CCCCCCCC[C@@H](C)C(=O)N1CCC[C@H]1C(=O)N[C@@H](C[C@H](C)C[C@H](O)CC(=O)CC)C(=O)NC(C)(C)C(=O)NC(C)(C)C(=O)N[C@H](C(=O)N[C@H](C(=O)NC(C)(C)C(=O)NC(C)(C)C(=O)N[C@@H](C)CN(C)CCO)C(C)C)[C@@H](C)CC [TRICHODERIN A] ({Decanoyl(2R-Me)}-P[X1][Aib][Aib]IV[Aib][Aib]-{Alaψ(CH2NMeCH2CH2OH)}) | 25 (≈ 21.5 µM)
O=C1CC[C@H](O)c2cc(O)cc(O)c21 | 12.5 (≈ 64.4 µM)
C=C[C@H]1C=C[C@H]2[C@@H]3C[C@H](C)CC[C@H]3[C@@H]3Oc4ccc(cc4)C[C@]4(O)NC(=O)[C@H](C(=O)[C@@H]1[C@H]23)C4N1C(=O)[C@H]2C(=O)[C@H]3[C@@H](C=C)C=C[C@H]4[C@@H]5C[C@H](C)CC[C@H]5[C@H](Oc5ccc(cc5)C[C@@H]2C1=O)[C@@H]43 (stereo partly drawn) [HIRSUTELLONE F] | 3.12 (≈ 3.5 µM)
CCCCCCCCCCCC(=O)c1c(O)cc(O)cc1O [DODECANOYLPHLOROGLUCINOL] | 50 (≈ 162 µM)
O=C(/C=C/CC/C=C/c1ccc2c(c1)OCO2)N1CCCC1 [SARMENTOSINE] | 50 (≈ 167 µM)
COc1c(-c2ccc(O)cc2)oc2c3c(ccc2c1=O)OC(C)(C)[C@H](OC(C)=O)[C@@H]3OC(C)=O | 25 (≈ 53.4 µM)
COc1ccc2c(=O)c(OC)c(-c3ccc4c(c3)OCO4)oc2c1 [DEMETHOXYKANUGIN] | 50 (≈ 153 µM)
O=C1C[C@@H](c2ccccc2)Oc2cc(O)cc(O)c21 [PINOCEMBRIN] | 12.5 (≈ 48.8 µM)
COc1cc(O)c2c(c1)[C@H](O)[C@@H](OC)CC2=O | 25 (≈ 105 µM)
COc1c2ccoc2cc2oc(-c3ccccc3)cc(=O)c12 [PINNATIN] | 12.5 (≈ 42.8 µM)
O=C1C=C[C@@H](OC(=O)/C=C/c2ccccc2)[C@@H]([C@H]2O[C@@H]2c2ccccc2)O1 [HOWIININ A] | 6.25 (≈ 17.2 µM)

tested on: Mycobacterium tuberculosis; test: Antimycobacterial activity against Mycobacterium tuberculosis H37Rv; assay type: functional; conditions: Mycobacterium tuberculosis, H37Rv; read-out: MIC

Structure (SMILES) | MIC
C[C@@H]1C[C@H](C)C(=O)/C=C/C2[C@@H](O)C3OC4=C(C(=O)O[C@@]42C[C@H]3C)C1=O (single isomer, unassigned; (-)) | 7.2 µM
COc1cc2ccc(=O)oc2cc1O [SCOPOLETIN] | 42 µg/mL
CCOC(=O)/C=C/COc1ccc(/C=C/C(=O)/C=C(O)/C=C/c2ccc(OC/C=C/C(=O)OCC)c(OC)c2)cc1 | 7.18 µg/mL
COc1cc(C)c(C(=O)Oc2cc(C)c(C(=O)O)c(O)c2C)c(OC)c1C [DIFFRACTAIC ACID] | 15.6 µg/mL
COc1cc(-c2ccc3c(c2)OCO3)nc2ccccc12 [GRAVEOLININE] | 16 µg/mL
c1cc2c[n+](c1)CCCCCCCCCCCCCCc1ccc[n+](c1)CCCCCCCCCCCCC2 [CYCLOSTELLETAMINES E] | 11 µg/mL
CC(C)=CCc1c(O)ccc(C(=O)/C=C/c2ccc(O)cc2)c1O [ISOBAVACHALCONE] | 18 µg/mL
CC1(C)Oc2cc(O)c(C(=O)/C=C/c3ccccc3)c(O)c2CC1O (stereo not drawn) | 0.05 µg/mL
O=C1c2scnc2-c2nccc3c2c1nc1ccccc13 [KUANONIAMINE A] | 10.7 µM
CC(C)=CCc1c(O)cc(O)c(C(=O)/C=C/c2ccccc2)c1O | 0.05 µg/mL
O=C(O)CCCCCCCCCC(=O)C1=CCCC1 [ANTHELMINTHICINS A] | 5.54 µM
[C-]#[N+][C@@]12CCC(=C)[C@H]3[C@H](CC(C)(C)NC(=O)CN4CCC4=O)C[C@H](C)[C@@H](CC[C@@H]1C)[C@@H]32 [MONAMPHILECTINE A] | 15.3 µg/mL
c1cc[n+]2c(c1)CCCCCCCCCCCCC[n+]1cccc(c1)CCCCCCCCCCCCC2 [CYCLOSTELLETAMINES C] | 4 µg/mL
COC1=CC(=O)c2c(O)cccc2C1=O | 30 µg/mL
CC(C)C1=C(O)C(=O)C2=C(C1=O)[C@H](O)[C@@H](O)[C@H]1C(C)(C)CCC[C@]21C | 25 µg/mL
CC(=O)NCCc1c2c3c(ccnc3c3ncsc13)-c1ccccc1N2 [KUANONIAMINE D] | 34 µM
CSC1=C(CCNC(C)=O)c2nc3ccccc3c3ccnc(c23)C1=O [DIPLAMINE] | 17 µM
CC[C@H](CC[C@@H](C)[C@H]1CC[C@H]2[C@@H]3CC=C4CC(=O)CC[C@]4(C)[C@H]3CC[C@]12C)C(C)C [BETA-SITOSTENONE] | 39.5 µM
CCc1cc(C(N)=S)ccn1 [ETHIONAMIDE] | 18 µM
O=C(O)CCCCCCCCCCCC[C@@H]1C=CCC1 [CHAULMOOGRIC ACID] | 16.8 µM
CC(=O)NCCc1c2c(c3nccc4c3c1Nc1ccccc1-4)OCS2 [LISSOCLINIDINE] | 17 µM
COc1cc(/C=C/C(O)=C/C(=O)/C=C/c2ccc(O)cc2)ccc1O [DEMETHOXYCURCUMIN] | 200 µg/mL
C[C@H](C/C=C/C(C)(C)OO)[C@H]1CC[C@@]2(C)[C@@H]3CC[C@H]4C(C)(C)[C@@H](O)CC[C@@]45C[C@@]35CC[C@]12C | 25 µg/mL
CC(=O)[C@]1(O)C(C)=C(C)C(=O)[C@@]12CC[C@](C)(CCC[C@H](C)CCC[C@H](C)CCCC(C)C)O2 | 30 µg/mL
C/C=C(C)/C=C(\C)C(O)C(C)[C@H](O)[C@@H](O)[C@H]1C/C=C\C=C\[C@H](O)C[C@@H](O)[C@H](C)c2nc(cs2)/C=C(\CCCCCC)C(=O)O1 (stereo partly drawn) [THUGGACIN A] | 8 µg/mL
COc1ccc(CC(O)C(O)Cc2ccccc2)cc1 (stereo not drawn) | 30 µg/mL
COc1cc(-c2ccccc2)nc2ccccc12 | 16 µg/mL

Structure (SMILES) | MIC
CSc1cnc2c3c(nc4ccccc4c13)C(CCNC(C)=O)=CC2=O [ISODIPLAMINE] | 17 µM
COc1c2ccoc2nc2c3c(ccc12)OCO3 [KOKUSAGINE] | 16 µg/mL
C=C(C)/C=C/[C@@]12C(=O)C=CC(=O)[C@@]13CC(C)=C[C@@H]2c1cc(O)ccc1O3 [EHRETIQUINONE] | 25 µg/mL
O=C1c2c(O)ccnc2-c2nccc3c2c1nc1ccccc13 | 42 µM
c1cc2c[n+](c1)CCCCCCCCCCCCCc1ccc[n+](c1)CCCCCCCCCCCC2 [CYCLOSTELLETAMINES B] | 4 µg/mL
C/C(=C\CO)CCC[C@H](C)CCC[C@H](C)CCCC(C)C [TRANS-PHYTOL] | 12.5 µg/mL
[C-]#[N+]C(C)(C)C[C@@H]1C[C@H](C)[C@H]2CC[C@H](C)[C@@]3([N+]#[C-])CCC(=C)[C@@H]1[C@H]23 [DIISOCYANOAMPHILECTENE] | 2 µg/mL
c1cc2c[n+](c1)CCCCCCCCCCCCc1ccc[n+](c1)CCCCCCCCCCCC2 [CYCLOSTELLETAMINES A] | 32 µg/mL
CC(C)C1=C(O)C(=O)C2=C(C1=O)[C@H](O)C[C@H]1C(C)(C)CCC[C@]21C [HORMINONE] | 25 µg/mL
C/C=C(/NC(=O)c1csc(-c2csc(-c3ccc4c(n3)-c3csc(n3)C(C(C)(O)C(C)O)NC(=O)c3csc(n3)C(C(C)C)NC(=O)c3csc(n3)/C(=C/OC)NC(=O)C(C(C)O)NC(=O)c3csc-4n3)n2)n1)C(=O)OC (stereo not drawn) [NOCARDITHIOCIN] | 0.025 µg/mL
CC(=O)O[C@H]1C2=C(C(=O)C(O)=C(C(C)C)C2=O)[C@@]2(C)CCCC(C)(C)[C@@H]2[C@@H]1O | 25 µg/mL
c1cc2c[n+](c1)CCCCCCCCCCCCCCc1ccc[n+](c1)CCCCCCCCCCCC2 [CYCLOSTELLETAMINES D] | 8 µg/mL
O=C(CCCCCCCC[C@H]1C=CCC1)OCC(O)CO (stereo partly drawn) [ANTHELMINTHICINS B] | 16.7 µM
CC1=C(C)C(=O)C(CC[C@](C)(O)CCC[C@H](C)CCC[C@H](C)CCCC(C)C)=C(C)C1=O | 25 µg/mL
c1cc2c[n+](c1)CCCCCCCCCCCCCCc1ccc[n+](c1)CCCCCCCCCCCCCC2 [CYCLOSTELLETAMINES F] | 8 µg/mL
COC1=CC(=O)c2cccc(O)c2C1=O | 3.12 µg/mL
CC(=O)NCCc1c2c(c3nccc4c3c1Nc1ccccc1-4)NC(=O)CS2 [SHERMILAMINE B] | 32 µM
CCOC(=O)CCCCCCCCCCCC[C@@H]1C=CCC1 [ETHYL CHAULMOOGRATE] | 9.82 µM
O=C1C2=C(C(=O)c3c(O)cccc31)[C@]1(O)C[C@H]2C(=O)c2c(O)cccc21 [ENGELHARQUINONE] | 20 µg/mL
CCCCCCC1=C(O)CC(CCCCC)OC1=O (stereo not drawn) [PSEUDOPYRONINES A] | 3.12 µg/mL
C=C[C@]1(C)C2=C3c4c([nH]c5cccc(c45)C(C)(C)[C@H]3C[C@H]1Cl)C(C)(C)C(C#N)=C2 [AMBIGUINE G NITRILE] | 53.7 µM
Cl.Nc1ncc(C/C=C/NC(=O)c2cc(Br)c[nH]2)[nH]1 [HYMENIDINE] | 6.1 µg/mL
C=C(C)C(CC[C@@H](C)[C@H]1CC[C@@]2(C)[C@@H]3CC[C@H]4C(C)(C)[C@@H](O)CC[C@@]45C[C@@]35CC[C@]12C)OO (stereo partly drawn) | 25 µg/mL
CC(=O)[C@]1(O)C(C)=C(C)C(=O)[C@@]12CC[C@H](CCC[C@H](C)CCC[C@H](C)CCCC(C)C)O2 | 50 µg/mL
NC1=N[C@@]23CCCN2C(=O)c2[nH]cc(Br)c2[C@@H]3N1 [MONOBROMOISOPHAKELLIN] | 64 µg/mL
CC(C)C1=C(O)C(=O)C2=C(C=C[C@H]3C(C)(C)CCC[C@]23C)C1=O | 25 µg/mL
CC(C)=CCc1c(O)ccc(C(=O)/C=C/c2cc(O)c3c(c2)C=CC(C)(C)O3)c1O | 30 µg/mL

— ChEMBL document CHEMBL2203104, “Recent advances in antitubercular natural products” (Eur J Med Chem, 2012)
